Where “and” joins values, the source holds several entries; their conditions need not be identical. Equal values may be shown once. Toxic doses and inconclusive results are not listed. Rule as the data show it: active = T/C of 150% or more; inactive = T/C below 125%.
System: L1210 leukemia ip in BDF1 mice, survival T/C
Assay: NCI In Vivo Anticancer Drug Screen. Data for tumor model L1210 Leukemia (intraperitoneal) in B6D2F1 (BDF1) mice
Settings: endpoint: mean survival time, higher = longer survival
Outline: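 Ratio derived from survival: compound-dosed mice over vehicle-dosed mice, all bearing a transplantable tumor.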

[1] = dose: 100.0 mg/kg/injection, schedule: Q01DX009 (ip), vehicle: saline with Tween-80
[2] = dose: 200.0 mg/kg/injection, schedule: Q01DX009 (ip), vehicle: saline with Tween-80
[3] = dose: 400.0 mg/kg/injection, schedule: Q01DX009 (ip), vehicle: saline with Tween-80
[4] = dose: 100.0 mg/kg/injection, schedule: Q01DX009 (ip), vehicle: Klucel (hydroxypropylcellulose) (HPC)
[5] = dose: 100.0 mg/kg/injection, schedule: Q04DX003 (ip), vehicle: Klucel (hydroxypropylcellulose) (HPC)
[6] = dose: 200.0 mg/kg/injection, schedule: Q01DX009 (ip), vehicle: Klucel (hydroxypropylcellulose) (HPC)
[7] = dose: 200.0 mg/kg/injection, schedule: Q04DX003 (ip), vehicle: Klucel (hydroxypropylcellulose) (HPC)
[8] = dose: 400.0 mg/kg/injection, schedule: Q01DX009 (ip), vehicle: Klucel (hydroxypropylcellulose) (HPC)
[9] = dose: 400.0 mg/kg/injection, schedule: Q04DX003 (ip), vehicle: Klucel (hydroxypropylcellulose) (HPC)
[10] = dose: 100.0 mg/kg/injection, schedule: Q01DX001 (ip), vehicle: saline
[11] = dose: 200.0 mg/kg/injection, schedule: Q01DX001 (ip), vehicle: saline
[12] = dose: 400.0 mg/kg/injection, schedule: Q01DX001 (ip), vehicle: saline
[13] = dose: 100.0 mg/kg/injection, schedule: Q04DX003 (ip), vehicle: saline with Tween-80
[14] = dose: 200.0 mg/kg/injection, schedule: Q04DX003 (ip), vehicle: saline with Tween-80
[15] = dose: 400.0 mg/kg/injection, schedule: Q04DX003 (ip), vehicle: saline with Tween-80
[16] = dose: 100.0 mg/kg/injection, schedule: Q04DX003 (ip), vehicle: saline
[17] = dose: 200.0 mg/kg/injection, schedule: Q04DX003 (ip), vehicle: saline
[18] = dose: 400.0 mg/kg/injection, schedule: Q04DX003 (ip), vehicle: saline

Measured: T/C

CC(=O)C1(c2ccccc2)C(C)(C)C(C)(C)C(=O)C(C)(C)C1(C)C
inactive: dose: 100.0 mg/kg/injection, schedule: Q04DX002 (ip), vehicle: gum acacia 99 % of control | dose: 200.0 mg/kg/injection, schedule: Q04DX002 (ip), vehicle: gum acacia 96 % of control | dose: 400.0 mg/kg/injection, schedule: Q04DX002 (ip), vehicle: gum acacia 92 % of control

O=C(c1ccccc1)c1ccsc1C(=O)c1ccccc1
inactive: dose: 50.0 mg/kg/injection, schedule: Q01DX009 (ip), vehicle: saline with Tween-80 89 % of control | [1] 86 % of control | [2] 89 % of control

NC(=O)c1ccccc1OC(=O)Nc1ccccc1F
inactive: [1] 106 % of control | [2] 107 % of control | [3] 107 % of control

Cc1[nH]c(N)nc(=S)c1CCC(=O)O
inactive: [4] 96 % of control | [5] 98 % of control | [6] 96 % of control | [7] 93 % of control | [8] 98 % of control | [9] 90 % of control

O=c1nc(SCc2ccccc2)c(SCc2ccccc2)n[nH]1
inactive: [10] 95 % of control | [11] 98 % of control | [12] 91 % of control

OC1(c2ccccc2)CCN(C/C=C/c2ccccc2Cl)CC1
inactive: [13] 92 % of control | [14] 93 % of control | [15] 90 % of control

CC(C)(C)C(=O)CC(O)(C(F)(F)Cl)C(F)(F)Cl
inactive: [13] 107 % of control | [14] 91 % of control

Cc1[nH]c(=O)[nH]c(=O)c1CN(C)Cc1cc(Cl)cc(Cl)c1O
inactive: dose: 50.0 mg/kg/injection, schedule: Q01DX001 (ip), vehicle: saline 95 % of control | [10] 95 % of control | [11] 95 % of control | [12] 101 % of control

Nc1cccc(/C=C/c2ccncc2)c1
inactive: [4] 97 % of control | [6] 94 % of control | [8] 95 % of control

O=C(O)C1CCCC2C(O)CCC(=O)C12 (configuration not stated)
inactive: [10] 95 % of control and 107 % of control | dose: 100.0 mg/kg/injection, schedule: Q01DX009 (ip), vehicle: saline sonified 98 % of control | dose: 100.0 mg/kg/injection, schedule: Q04DX003 (ip), vehicle: saline sonified 100 % of control | [11] 104 % of control and 101 % of control | dose: 200.0 mg/kg/injection, schedule: Q01DX009 (ip), vehicle: saline sonified 102 % of control | dose: 200.0 mg/kg/injection, schedule: Q04DX003 (ip), vehicle: saline sonified 92 % of control | [12] 107 % of control and 96 % of control | dose: 400.0 mg/kg/injection, schedule: Q01DX009 (ip), vehicle: saline sonified 93 % of control | dose: 400.0 mg/kg/injection, schedule: Q04DX003 (ip), vehicle: saline sonified 95 % of control

Cc1nnc2c3ccccc3c(-c3ccccc3)nn12
inactive: dose: 100.0 mg/kg/injection, schedule: Q01DX001 (ip), vehicle: carboxymethylcellulose (CMC) 104 % of control | dose: 200.0 mg/kg/injection, schedule: Q01DX001 (ip), vehicle: carboxymethylcellulose (CMC) 106 % of control

CCc1ccc(C(=O)CCCCl)cc1
inactive: [13] 94 % of control | [14] 100 % of control | [15] 86 % of control

CN(C)C(=S)SCC(=O)O
inactive: dose: 100.0 mg/kg/injection, schedule: Q04DX002 (ip), vehicle: saline with Tween-80 100 % of control | dose: 200.0 mg/kg/injection, schedule: Q04DX002 (ip), vehicle: saline with Tween-80 96 % of control | dose: 400.0 mg/kg/injection, schedule: Q04DX002 (ip), vehicle: saline with Tween-80 100 % of control

O=C(C=C(C(F)(F)F)C(F)(F)F)/C=C/c1ccccc1
inactive: dose: 1.0 mg/kg/injection, schedule: Q01DX009 (ip), vehicle: other 97 % of control | dose: 2.0 mg/kg/injection, schedule: Q01DX009 (ip), vehicle: other 109 % of control | dose: 2.5 mg/kg/injection, schedule: Q04DX003 (ip), vehicle: other 97 % of control | dose: 3.13 mg/kg/injection, schedule: Q01DX009 (ip), vehicle: other 102 % of control | dose: 4.0 mg/kg/injection, schedule: Q01DX009 (ip), vehicle: other 97 % of control | dose: 5.0 mg/kg/injection, schedule: Q04DX003 (ip), vehicle: other 97 % of control | dose: 10.0 mg/kg/injection, schedule: Q04DX003 (ip), vehicle: other 92 % of control | dose: 12.5 mg/kg/injection, schedule: Q04DX003 (ip), vehicle: other 88 % of control

CCOc1ccc(/C=N/NC(=O)c2ccccc2NC(=O)c2ccccc2Cl)cc1OC
inactive: dose: 100.0 mg/kg/injection, schedule: Q01DX001 (ip), vehicle: Klucel (hydroxypropylcellulose) (HPC) 93 % of control | [4] 97 % of control and 90 % of control | dose: 100.0 mg/kg/injection, schedule: Q04DX002 (ip), vehicle: Klucel (hydroxypropylcellulose) (HPC) 95 % of control and 103 % of control | [5] 92 % of control | dose: 200.0 mg/kg/injection, schedule: Q01DX001 (ip), vehicle: Klucel (hydroxypropylcellulose) (HPC) 98 % of control | [6] 90 % of control and 91 % of control | dose: 200.0 mg/kg/injection, schedule: Q04DX002 (ip), vehicle: Klucel (hydroxypropylcellulose) (HPC) 108 % of control and 92 % of control | [7] 97 % of control | dose: 400.0 mg/kg/injection, schedule: Q01DX001 (ip), vehicle: Klucel (hydroxypropylcellulose) (HPC) 93 % of control | [8] 94 % of control and 88 % of control | dose: 400.0 mg/kg/injection, schedule: Q04DX002 (ip), vehicle: Klucel (hydroxypropylcellulose) (HPC) 97 % of control and 92 % of control | [9] 92 % of control

CCCCCCCCCCCCCCC(CCCCCCCCCCCCCC)C1CCCCC1
inactive: dose: 100.0 mg/kg/injection, schedule: Q01DX001 (ip), vehicle: saline with Tween-80 92 % of control | dose: 200.0 mg/kg/injection, schedule: Q01DX001 (ip), vehicle: saline with Tween-80 95 % of control | dose: 400.0 mg/kg/injection, schedule: Q01DX001 (ip), vehicle: saline with Tween-80 94 % of control

N#CCCP(=S)(c1ccccc1)c1ccccc1
inactive: dose: 100.0 mg/kg/injection, schedule: Q01DX001 (ip), vehicle: other 104 % of control | dose: 100.0 mg/kg/injection, schedule: Q04DX003 (ip), vehicle: other 102 % of control | dose: 200.0 mg/kg/injection, schedule: Q01DX001 (ip), vehicle: other 98 % of control | dose: 200.0 mg/kg/injection, schedule: Q04DX003 (ip), vehicle: other 96 % of control | dose: 400.0 mg/kg/injection, schedule: Q01DX001 (ip), vehicle: other 102 % of control | dose: 400.0 mg/kg/injection, schedule: Q04DX003 (ip), vehicle: other 90 % of control

CCN(c1c(C)cc(C)c(N(CC(=O)O)S(=O)(=O)c2ccccc2)c1C)S(=O)(=O)c1ccccc1
inactive: [1] 101 % of control | [16] 94 % of control | [2] 97 % of control | [17] 100 % of control | [3] 95 % of control | [18] 103 % of control

CCCCCCCCCCCCCCP(I)(N(C)C)(N(C)C)N(C)C
inactive: dose: 0.78 mg/kg/injection, schedule: Q04DX002 (ip), vehicle: saline 107 % of control | dose: 1.56 mg/kg/injection, schedule: Q04DX002 (ip), vehicle: saline 113 % of control | dose: 3.13 mg/kg/injection, schedule: Q04DX002 (ip), vehicle: saline 113 % of control

O=C1C(n2ccc(=O)n(Cc3ccccc3)c2=O)CCN1CCO (configuration not stated)
inactive: [16] 96 % of control | [17] 119 % of control | [18] 102 % of control

NC1(C(=O)NCC(=O)O)C2CC3CC(C2)CC1C3 (configuration not stated)
inactive: dose: 25.0 mg/kg/injection, schedule: Q01DX009 (ip), vehicle: Klucel (hydroxypropylcellulose) (HPC) 94 % of control | dose: 50.0 mg/kg/injection, schedule: Q01DX009 (ip), vehicle: Klucel (hydroxypropylcellulose) (HPC) 100 % of control | [4] 97 % of control and 99 % of control | [6] 103 % of control | [8] 102 % of control

COc1ccc(N2C(=O)CC(Cl)C2=O)cc1 (configuration not stated)
inactive: dose: 22.0 mg/kg/injection, schedule: Q04DX003 (ip), vehicle: Klucel (hydroxypropylcellulose) (HPC) 105 % of control | dose: 44.0 mg/kg/injection, schedule: Q04DX003 (ip), vehicle: Klucel (hydroxypropylcellulose) (HPC) 97 % of control | dose: 87.5 mg/kg/injection, schedule: Q04DX003 (ip), vehicle: saline with Tween-80 103 % of control | dose: 88.0 mg/kg/injection, schedule: Q04DX003 (ip), vehicle: Klucel (hydroxypropylcellulose) (HPC) 111 % of control
